Data: patent publication US9702866B2, “Glatiramer acetate human monocytic cell line-based potency assay” (SYNTHON B.V., priority 2013, dated 2017)

What was measured:
THP-1 cells [1] = assay: sIL-1Ra expression of IFNγ-stimulated THP-1 cells after exposure to GA (ELISA); format: cell-based, human; settings: THP-1 cells in the presence of IFNγ
Experimental: • Add 10 ml RPMI-1640 Medium (Lonza/Cambrex, #12-70F) with 10% FBS (fetal bovine serum) to a 15 ml sterile tube. • Remove one vial of THP-1 cells (ATCC, #TIB-202) from the liquid nitrogen storage tank and thaw the cells in the vial by gentle agitation in a 37° C.±1° C. water bath until almost totally thawed. • Sterilize the outside of the vial using a wipe, soaked in 70% (v/v) ethanol. • Using good aseptic technique, open the vial and transfer the contents of the vial into a Falcon tube, adding 10 ml of the pre-warmed RPMI-1640 plus 10% FBS. • Spin down at approximately 200 g for 5 minutes. Afterwards, discard the supernatant. • Resuspend the pellet into 10 ml pre-warmed RPMI-1640 plus 10% FBS, and transfer the cell suspension to a T-25 culture flask. • Place the T-25 cell culture flask into a humidified incubator at 37±1° C. and 5.0±1% CO2. Sub-Culturing (Passaging) of THP-1 Cells • THP-1 cells are sub-cultured every 3 or 4 days. • Collect cells and spin down at 200 g for 5 min. […] Supernatant Harvest and ELISA • After 72 hours of incubation centrifuge the 96-well plate at 200 g for 5 minutes. • Transfer 125 μl of the cell-free supernatant/well to a storage plate. • sIL-1Ra is determined in the cell supernatants using the sIL-1Ra ELISA kit from Quantikine, R&D, Minneapolis, Minn. […]

THP-1 cells [2] = assay: lactate dehydrogenase (LDH) release as marker for cell death in IFNγ-activated THP-1 cells; format: cell-based, human; settings: 100 μg/ml glatiramer acetate, IFNγ (10 ng/ml)-activated THP-1 cells
THP-1 cells [3] = assay: cell viability by ATP levels (CellTiter-Glo) in IFNγ-activated THP-1 cells; format: cell-based, human; settings: IFNγ (25 ng/ml)-activated THP-1 cells, after 120 h of culture
Experimental: In another embodiment of the present invention, the viability of human monocytic cell line cells, particularly THP-1 cells, is measured. Suitable methods to determine viability of human monocytic cell line cells are well-known to the person skilled in the art. One suitable method is measuring ATP levels (for instance the CellTiter-Glo® Luminescent Cell Viability Assay is a homogeneous method to determine the number of viable cells in culture based on quantitation of the ATP present, which signals the presence of metabolically active cells) after a suitable time period, typically after 96-144 hours, particularly after 120 hours. When determining the number of viable cells, similar or slightly higher concentrations of IFNγ can be used as described above.
Upon confirmation of parallelism the reduced model will be fitted and the EC50 for the Reference and test batch will be estimated by EC50RS and EC50TA respectively. The relative potency of the test batch will be estimated as: Relative potency=EC50RS/EC50TA*100% Cell Viability • The number of metabolically active cells in the cultures is determined by the CellTiter-Glo® Luminescent Cell Viability Assay (Promega, G7571). […] It is based on quantitation of adenosine tri-phosphate (ATP), which signals the presence of metabolically active cells.

[4] = tested on: Human leukemic monocyte lymphoma cells (U937); assay: responsiveness of U937 cells to GA; format: cell-based
human monocytes = human monocytes in vitro; cited from earlier work
[5] = MS patients, in vivo; cited from earlier work

For Glatiramer acetate [GA], the sIL-1Ra secretion (THP-1 cells [1]) was “induces sIL-1Ra secretion”, the “cell death (LDH release)” value (THP-1 cells [2]) was “induces cell death” and the “cell viability (ATP levels)” value (THP-1 cells [3]) was “cell viability inhibition”. For the same substance, the “responsiveness of cells to GA” value [4] was “not responsive”, the “production of sIL-1Ra in monocytes” value (human monocytes) was “induces the production” and the sIL-1Ra circulating levels [5] was “enhances sIL-1Ra circulating levels”.
